Target: T1, WT/R232 STING protein (Homo sapiens, UniProt Q86WV6, H232R)
T1 construct: host or cells: HEK293T
Assay: Luciferase reporter assay in HEK293T-hSTING-Luciferase cells (R232)
Type: cell-based
Conditions: 20 hr stimulation, EC50 range
Description: • a) Stable STING expressing cells—Stable HEK293T STING-expressing cell lines were generated using plasmids purchased from Invivogen, CA, USA, that contain STING cDNA cloned into the pUNO-1 vector under hEF1-HTLV promoter and containing the Blasticidin selection cassette. The plasmids hSTING (R232), hSTING (H232), hSTING (HAQ) were directly procured from Invivogen while hSTING (AQ) and hSTING (Q) were derived from hSTING (HAQ) and hSTING (R232) plasmids respectively by using a PCR based site directed mutagenesis method. These vectors were individually transfected into HEK293T cells using Lipofectamine (Invitrogen) and transfected cells were selected under Blasticidin selection. These transfected cells were further subjected to clonal selection using the limiting dilution method to obtain clonally pure populations of HEK cells transfected with each of the above mentioned human STING variants. Only those clones were selected in which ligand independent activation of STING was minimal. • b) Stable Luciferase reporter gene expressing cells—Stable HEK293T Luciferase reporter gene expressing cell lines were generated using pCDNA4 plasmids under an IRF-inducible promoter. This promoter is comprised of five tandem interferon-stimulated response elements (ISRE) fused to an ISG54 minimal promoter. This vector was transfected into HEK293T cells using Lipofectamine (Invitrogen) and transfected cells were selected under Zeocin selection. These transfected cells were further subjected to clonal selection using the limiting dilution method to obtain clonally pure populations of HEK cells transfected the Luciferase reporter construct. Only those clones were selected in which ligand independent induction of luciferase was minimal.
5×10^5 clonally selected HEK293T-hSTING-Luciferase cells were seeded in 384-well plates in growth medium and stimulated with novel compounds. After 20 hr of stimulation supernatant were removed and secretary reporter gene activity were measured using the Quanti-Luc detection system (Invivogen) on a Spectramax i3X luminometer.
All compounds were first tested in a primary screen using WT/R232 STING protein to obtain a ‘fold-induction’ over baseline levels of protein activity.

T1 sequence (Q86WV6 whole entry H232R): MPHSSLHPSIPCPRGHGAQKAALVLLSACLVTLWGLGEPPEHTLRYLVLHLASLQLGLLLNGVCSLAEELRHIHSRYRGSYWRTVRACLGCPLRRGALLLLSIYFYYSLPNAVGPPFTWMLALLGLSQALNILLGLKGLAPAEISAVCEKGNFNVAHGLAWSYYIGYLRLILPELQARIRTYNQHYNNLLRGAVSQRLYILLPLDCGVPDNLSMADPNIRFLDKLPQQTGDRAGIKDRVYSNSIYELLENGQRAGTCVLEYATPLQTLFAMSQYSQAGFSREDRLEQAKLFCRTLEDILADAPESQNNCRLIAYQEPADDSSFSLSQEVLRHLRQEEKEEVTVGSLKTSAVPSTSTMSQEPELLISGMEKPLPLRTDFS

| Compound | EC50 |
| --- | --- |
| O=C(NCc1c(F)cc(F)cc1F)c1ccc2c(c1)N(Cc1cc(F)cc(F)c1)C(=O)C21CCCCC1 [Example 138] | > 10 µM |
| O=C(NCc1ccco1)c1ccc2c(c1)N(Cc1c(F)cccc1Cl)C(=O)C21CC1 [Example 139, 1′-(2-chloro-6-fluorobenzyl)-N-(furan-2-ylmethyl)-2′-oxospiro[cyclopropane-1,3′-indoline]-6′-carboxamide] | > 10 µM |
| O=C(NCc1ccco1)c1ccc2c(c1)N(Cc1c(F)cccc1Cl)S(=O)(=O)C2 [Example 140, 1-(2-chloro-6-fluorobenzyl)-N-(furan-2-ylmethyl)-1,3-dihydrobenzo[c]isothiazole-6-carboxamide 2,2-dioxide] | > 10 µM |
| O=C(NCc1c(F)cc(F)cc1F)c1ccc2c(c1)N(Cc1cc(F)cc(F)c1)C(=O)C2=O [Example 141, 1-(3,5-Difluorobenzyl)-2,3-dioxo-N-(2,4,6-trifluorobenzyl)indoline-6-carboxamide] | > 10 µM |
| O=C(NCc1c(F)cc(F)cc1F)c1ccc2c(c1)N(Cc1c(F)cccc1Cl)C(=O)C2=O [Example 142, 1-(2-Chloro-6-fluorobenzyl)-2,3-dioxo-N-(2,4,6-trifluorobenzyl)indoline-6-carboxamide] | > 10 µM |
| CC1(O)C(=O)N(Cc2c(F)cccc2Cl)c2cc(C(=O)NCc3c(F)cc(F)cc3F)ccc21 (stereo not drawn) [Example 143, 1-(2-Chloro-6-fluorobenzyl)-3-hydroxy-3-methyl-2-oxo-N-(2,4,6-trifluorobenzyl)indoline-6-carboxamide] | > 10 µM |
| CC1(O)C(=O)N(Cc2ccccc2F)c2cc(C(=O)NCc3ccco3)ccc21 (stereo not drawn) [Example 149, 1-(2-fluorobenzyl)-N-(furan-2-ylmethyl)-3-hydroxy-3-methyl-2-oxoindoline-6-carboxamide] | > 10 µM |
| CC1(N)C(=O)N(Cc2ccccc2F)c2cc(C(=O)NCc3c(F)cc(F)cc3F)ccc21 (stereo not drawn) [Example 154, 3-amino-1-(2-fluorobenzyl)-3-methyl-2-oxo-N-(2,4,6-trifluorobenzyl)indoline-6-carboxamide] | > 10 µM |
| O=C(NCc1c(F)cc(F)cc1F)c1ccc2c(c1)N(Cc1c(F)cccc1Cl)C(=O)C2(Cl)c1ccccc1 (stereo not drawn) [Example 156, 3-chloro-1-(2-chloro-6-fluorobenzyl)-2-oxo-3-phenyl-N-(2,4,6-trifluorobenzyl)indoline-6-carboxamide] | > 10 µM |
| CCC1(O)C(=O)N(Cc2c(F)cccc2Cl)c2cc(C(=O)NCc3c(F)cc(F)cc3F)ccc21 (stereo not drawn) [Example 158, 1-(2-chloro-6-fluorobenzyl)-3-ethyl-3-hydroxy-2-oxo-N-(2,4,6-trifluorobenzyl)indoline-6-carboxamide] | > 10 µM |
| CC(C)C1(O)C(=O)N(Cc2c(F)cccc2Cl)c2cc(C(=O)NCc3c(F)cc(F)cc3F)ccc21 (stereo not drawn) [Example 159, 1-(2-chloro-6-fluorobenzyl)-3-hydroxy-3-isopropyl-2-oxo-N-(2,4,6-trifluorobenzyl)indoline-6-carboxamide] | > 10 µM |
| O=C(NCc1c(F)cc(F)cc1F)c1ccc2c(c1)N(Cc1c(F)cccc1Cl)C(=O)C2(O)c1ccccc1 (stereo not drawn) [Example 160, 1-(2-chloro-6-fluorobenzyl)-3-hydroxy-2-oxo-3-phenyl-N-(2,4,6-trifluorobenzyl)indoline-6-carboxamide] | > 10 µM |
| CC1(O)C(=O)N(Cc2cc(F)cc(F)c2)c2cc(C(=O)NCc3c(F)cc(F)cc3F)ccc21 (stereo not drawn) [Example 162] | > 10 µM |
| CC1(CC(=O)O)C(=O)N(Cc2cc(F)cc(F)c2)c2cc(C(=O)NCc3c(F)cc(F)cc3F)ccc21 (stereo not drawn) [Example 169, 2-(1-(3,5-difluorobenzyl)-3-methyl-2-oxo-6-((2,4,6-trifluorobenzyl)carbamoyl)indolin-3-yl)acetic acid] | > 10 µM |
| CC1(C(N)=O)C(=O)N(Cc2cc(F)cc(F)c2)c2cc(C(=O)NCc3c(F)cc(F)cc3F)ccc21 (stereo not drawn) [Example 170] | > 10 µM |
| CC1(CCN2CCOCC2)C(=O)N(Cc2cc(F)cc(F)c2)c2cc(C(=O)NCc3c(F)cc(F)cc3F)ccc21 (stereo not drawn) [Example 171, 1-(3,5-difluorobenzyl)-3-methyl-3-(2-morpholinoethyl)-2-oxo-N-(2,4,6-trifluorobenzyl)indoline-6-carboxamide] | > 10 µM |
| CC1(CN)C(=O)N(Cc2cc(F)cc(F)c2)c2cc(C(=O)NCc3c(F)cc(F)cc3F)ccc21 (stereo not drawn) [Example 172, 3-(aminomethyl)-1-(3,5-difluorobenzyl)-3-methyl-2-oxo-N-(2,4,6-trifluorobenzyl)indoline-6-carboxamide] | > 10 µM |

Next, values leading:

| EC50 | Compound |
| --- | --- |
| 1 to 10 µM | Cc1ccc(CNC(=O)c2ccc3c(c2)N(Cc2ccc(F)c(F)c2)C(=O)C3(C)C)o1 [Example 122, 1-(3,4-difluorobenzyl)-3,3-dimethyl-N-((5-methylfuran-2-yl)methyl)-2-oxoindoline-6-carboxamide] |
| 1 to 10 µM | Cc1ccc(CNC(=O)c2ccc3c(c2)N(C(C)c2ccc(F)cc2)C(=O)C3(C)C)o1 (stereo not drawn) [Example 123, 1-(1-(4-fluorophenyl)ethyl)-3,3-dimethyl-N-((5-methylfuran-2-yl)methyl)-2-oxoindoline-6-carboxamide] |
| > 10 µM | Cc1ccc(CN2C(=O)C(C)(C)c3ccc(C(=O)NCc4cc(F)cc(F)c4)cc32)o1 [Example 125, N-(3,5-difluorobenzyl)-3,3-dimethyl-1-((5-methylfuran-2-yl)methyl)-2-oxoindoline-6-carboxamide] |
| 1 to 10 µM | Cc1cnc(CNC(=O)c2ccc3c(c2)N(Cc2c(F)cccc2Cl)C(=O)C3(C)C)o1 [Example 126, 1-(2-chloro-6-fluorobenzyl)-3,3-dimethyl-N-((5-methyloxazol-2-yl)methyl)-2-oxoindoline-6-carboxamide] |
| > 10 µM | Cn1cccc1CNC(=O)c1ccc2c(c1)N(Cc1c(F)cccc1Cl)C(=O)C2(C)C [Example 127, 1-(2-chloro-6-fluorobenzyl)-3,3-dimethyl-N-((1-methyl-1H-pyrrol-2-yl)methyl)-2-oxoindoline-6-carboxamide] |
| > 10 µM | Cc1ncc(CN2C(=O)C(C)(C)c3ccc(C(=O)NCc4c(F)cc(F)cc4F)cc32)o1 [Example 128, 3,3-dimethyl-1-((2-methyloxazol-5-yl)methyl)-2-oxo-N-(2,4,6-trifluorobenzyl)indoline-6-carboxamide] |
| > 10 µM | Cc1ccc(-c2nc(CN3C(=O)C(C)(C)c4ccc(C(=O)NCc5c(F)cc(F)cc5F)cc43)c(C)o2)cc1 [Example 129, 3,3-dimethyl-1-((5-methyl-2-(p-tolyl)oxazol-4-yl)methyl)-2-oxo-N-(2,4,6-trifluorobenzyl)indoline-6-carboxamide] |
| > 10 µM | CC1(C)C(=O)N(Cc2cc3ccccc3o2)c2cc(C(=O)NCc3c(F)cc(F)cc3F)ccc21 [Example 131, 1-(benzofuran-2-ylmethyl)-3,3-dimethyl-2-oxo-N-(2,4,6-trifluorobenzyl)indoline-6-carboxamide] |
| > 10 µM | CC1(C)CN(C(=O)c2c(F)cccc2Cl)c2cc(C(=O)NCc3ccco3)ccc21 [Example 132, 1-(2-chloro-6-fluorobenzoyl)-N-(furan-2-ylmethyl)-3,3-dimethylindoline-6-carboxamide] |
| > 10 µM | O=C(NCc1ccco1)c1ccc2c(c1)N(Cc1ccccc1F)C(=O)C2(F)F [Example 133, 3.3-Difluoro-1-(2-fluorobenzyl)-N-(furan-2-ylmethyl)-2-oxoindoline-6-carboxamide] |
| > 10 µM | CC1(C)c2ccc(C(=O)NCc3c(F)cc(F)cc3F)cc2N(Cc2c(F)cccc2Cl)S1(=O)=O [Example 134, 1-(2-Chloro-6-fluorobenzyl)-3,3-dimethyl-N-(2,4,6-trifluorobenzyl)-1,3-dihydrobenzo[c]isothiazole-6-carboxamide 2,2-dioxide] |
| > 10 µM | O=C(NCc1ccco1)c1ccc2c(c1)N(C(=O)c1c(F)cccc1Cl)CC2 [Example 135, 1-(2-chloro-6-fluorobenzoyl)-N-(furan-2-ylmethyl)indoline-6-carboxamide] |
| 1 to 10 µM | CNC1(C)C(=O)N(Cc2cc(F)cc(F)c2)c2cc(C(=O)NCc3c(F)cc(F)cc3F)ccc21 (stereo not drawn) [Example 145, 1-(3,5-Difluorobenzyl)-3-methyl-3-(methylamino)-2-oxo-N-(2,4,6-trifluorobenzyl)indoline-6-carboxamide] |
| 1 to 10 µM | CC1(F)C(=O)N(Cc2cc(F)cc(F)c2)c2cc(C(=O)NCc3c(F)cc(F)cc3F)ccc21 (stereo not drawn) [Example 150, 1-(3,5-difluorobenzyl)-3-fluoro-3-methyl-2-oxo-N-(2,4,6-trifluorobenzyl)indoline-6-carboxamide] |
| 1 to 10 µM | COC1(C)C(=O)N(Cc2c(F)cccc2Cl)c2cc(C(=O)NCc3c(F)cc(F)cc3F)ccc21 (stereo not drawn) [Example 151] |
| 1 to 10 µM | CN(C)C1(C)C(=O)N(Cc2c(F)cccc2Cl)c2cc(C(=O)NCc3c(F)cc(F)cc3F)ccc21 (stereo not drawn) [Example 152, 1-(2-chloro-6-fluorobenzyl)-3-(dimethylamino)-3-methyl-2-oxo-N-(2,4,6-trifluorobenzyl)indoline-6-carboxamide] |

Source: patent publication US20200172483A1, “HETEROCYCLIC SMALL MOLECULE MODULATORS OF HUMAN STING” (Curadev Pharma Limited, priority 2017, published 2020)
